Assay results reported in ChEMBL document CHEMBL1201861, “Genomics of Drug Sensitity in Cancer screening data, Wellcome Trust Sanger Institute”.

Assays:
LC4-1 = assay: cells; format: functional, cell-based; settings: Homo sapiens;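 also: growth inhibition of LC4-1 cells, read out with a cell viability assay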
Description: SANGER: Inhibition of human LC4-1 cell growth in a cell viability assay.

NCI-H2030 = assay: cells; format: functional, cell-based; settings: Homo sapiens;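 also: growth inhibition of human NCI-H2030 cells, read out by a cell viability assay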
Description: SANGER: Inhibition of human NCI-H2030 cell growth in a cell viability assay.

MEL-JUSO = assay: cells; format: functional, cell-based; settings: Homo sapiens;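 also: growth inhibition of human MEL-JUSO cells, read out with a cell viability assay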
Description: SANGER: Inhibition of human MEL-JUSO cell growth in a cell viability assay.

SW1710 = assay: cells; format: functional, cell-based; settings: Homo sapiens;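 also: growth inhibition of SW1710 cells, determined with a cell viability assay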
Description: SANGER: Inhibition of human SW1710 cell growth in a cell viability assay.

SKG-IIIa = assay: cells; format: functional, cell-based; settings: Homo sapiens;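 also: cell growth inhibition, read out with a cell viability assay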
Description: SANGER: Inhibition of human SKG-IIIa cell growth in a cell viability assay.

NCI-H748 = assay: cells; format: functional, cell-based; settings: Homo sapiens;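 also: growth inhibition of NCI-H748 cells, measured by a cell viability assay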
Description: SANGER: Inhibition of human NCI-H748 cell growth in a cell viability assay.

RD = assay: cells; format: functional, cell-based; settings: Homo sapiens
Description: SANGER: Inhibition of human RD cell growth in a cell viability assay.

CWR22R = assay: cells; format: functional, cell-based; settings: Homo sapiens, 22Rv1;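 also: growth inhibition of 22Rv1 cells, read out with a cell viability assay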
Description: SANGER: Inhibition of human 22RV1 cell growth in a cell viability assay.

MIA PaCa-2 = assay: cells; format: functional, cell-based; settings: Homo sapiens;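 also: growth inhibition of MIA PaCa-2 cells, read out with a cell viability assay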
Description: SANGER: Inhibition of human MIA-PaCa-2 cell growth in a cell viability assay.

RPMI-2650 = assay: cells; format: functional, cell-based; settings: Homo sapiens
Description: SANGER: Inhibition of human RPMI-2650 cell growth in a cell viability assay.

EB2 = assay: cells; format: functional, cell-based; settings: Homo sapiens;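 also: growth inhibition of EB2 cells, read out with a cell viability assay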
Description: SANGER: Inhibition of human EB2 cell growth in a cell viability assay.

CAKI-1 = assay: cells; format: functional, cell-based; settings: Homo sapiens;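 also: growth inhibition of CAKI-1 cells, measured by a cell viability assay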
Description: SANGER: Inhibition of human CAKI-1 cell growth in a cell viability assay.

EB-3 = assay: cells; format: functional, cell-based; settings: Homo sapiens;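 also: human EB-3 cells, growth inhibition read out via a cell viability assay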
Description: SANGER: Inhibition of human EB-3 cell growth in a cell viability assay.

NCI-H2052 = assay: cells; format: functional, cell-based; settings: Homo sapiens;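 also: growth inhibition of NCI-H2052 cells, read out with a cell viability assay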
Description: SANGER: Inhibition of human NCI-H2052 cell growth in a cell viability assay.

769-P = assay: cells; format: functional, cell-based; settings: Homo sapiens
Description: SANGER: Inhibition of human 769-P cell growth in a cell viability assay.

SW626 = assay: cells; format: functional, cell-based; settings: Homo sapiens;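 also: growth inhibition of SW626 cells, measured with a cell viability assay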
Description: SANGER: Inhibition of human SW626 cell growth in a cell viability assay.

8505C = assay: cells; format: functional, cell-based; settings: Homo sapiens
Description: SANGER: Inhibition of human 8505C cell growth in a cell viability assay.

MDA-MB-361 = assay: cells; format: functional, cell-based; settings: Homo sapiens
NCI-N87 = assay: cells; format: functional, cell-based; settings: Homo sapiens;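 also: growth inhibition of human NCI-N87 cells, read out with a cell viability assay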
Description: SANGER: Inhibition of human NCI-N87 cell growth in a cell viability assay.

GCT = assay: cells; format: functional, cell-based; settings: Homo sapiens;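 also: GCT cell line proliferation inhibition, read out with a cell viability assay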
Description: SANGER: Inhibition of human GCT cell growth in a cell viability assay.

T84 = assay: cells; format: functional, cell-based; settings: Homo sapiens;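 also: growth inhibition measured with a cell viability readout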
Description: SANGER: Inhibition of human T84 cell growth in a cell viability assay.

TALL-1 = assay: cells; format: functional, cell-based; settings: Homo sapiens;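 also: growth inhibition of cultured human TALL-1 cells, read out by a cell viability assay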
Description: SANGER: Inhibition of human TALL-1 cell growth in a cell viability assay.

UMC-11 = assay: cells; format: functional, cell-based; settings: Homo sapiens;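 also: growth inhibition of UMC-11 cells, read out with a cell viability assay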
Description: SANGER: Inhibition of human UMC-11 cell growth in a cell viability assay.

LK-2 = assay: cells; format: functional, cell-based; settings: Homo sapiens;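 also: growth inhibition of LK-2 cells, read out with a viability assay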
Description: SANGER: Inhibition of human LK-2 cell growth in a cell viability assay.

RPMI-6666 = assay: cells; format: functional, cell-based; settings: Homo sapiens
Description: SANGER: Inhibition of human RPMI-6666 cell growth in a cell viability assay.

RERF-LC-MS = assay: cells; format: functional, cell-based; settings: Homo sapiens;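 also: growth inhibition of human RERF-LC-MS cells, read out by a cell viability assay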
Description: SANGER: Inhibition of human RERF-LC-MS cell growth in a cell viability assay.

FaDu = assay: cells; format: functional, cell-based; settings: Homo sapiens;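 also: cell viability readout of growth inhibition in FaDu cells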
Description: SANGER: Inhibition of human FADU cell growth in a cell viability assay.

A-375 = assay: cells; format: functional, cell-based; settings: Homo sapiens;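 also: growth inhibition of A375 cells, read out with a cell viability assay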
Description: SANGER: Inhibition of human A375 cell growth in a cell viability assay.

MDA-MB-175-VII = assay: cells; format: functional, cell-based; settings: Homo sapiens
KYSE-70 cell line = assay: cells; format: functional, cell-based; settings: Homo sapiens;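 also: cell viability assay read-out, with IC50 expressing suppression of KYSE-70 cell growth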
Description: SANGER: Inhibition of human KYSE-70 cell growth in a cell viability assay.

K052 = assay: cells; format: functional, cell-based; settings: Homo sapiens;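 also: Read-out from a cell viability assay, IC50 reflecting suppression of K052 cell growth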
Description: SANGER: Inhibition of human K052 cell growth in a cell viability assay.

8305C = assay: cells; format: functional, cell-based; settings: Homo sapiens
Description: SANGER: Inhibition of human 8305C cell growth in a cell viability assay.

BC-3 = assay: cells; format: functional, cell-based; settings: Homo sapiens;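 also: cell viability assay measuring growth inhibition of human BC-3 cells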
Description: SANGER: Inhibition of human BC-3 cell growth in a cell viability assay.

MCF7 = assay: cells; format: functional, cell-based; settings: Homo sapiens;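 also: growth inhibition of human MCF7 cells, read out with a cell viability assay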
Description: SANGER: Inhibition of human MCF7 cell growth in a cell viability assay.

BXPC-3 = assay: cells; format: functional, cell-based; settings: Homo sapiens;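 also: growth inhibition of human BxPC-3 cells, read out by a cell viability assay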
Description: SANGER: Inhibition of human BxPC-3 cell growth in a cell viability assay.

PANC-03-27 = assay: cells; format: functional, cell-based; settings: Homo sapiens
Description: SANGER: Inhibition of human PANC-03-27 cell growth in a cell viability assay.

OAW-42 = assay: cells; format: functional, cell-based; settings: Homo sapiens;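 also: growth inhibition of OAW-42 cells, read out with a cell viability assay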
Description: SANGER: Inhibition of human OAW-42 cell growth in a cell viability assay.

NCI-H1882 = assay: cells; format: functional, cell-based; settings: Homo sapiens;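 also: growth inhibition of the cell line, determined with a viability assay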
Description: SANGER: Inhibition of human NCI-H1882 cell growth in a cell viability assay.

5637 = assay: cells; format: functional, cell-based; settings: Homo sapiens
Description: SANGER: Inhibition of human 5637 cell growth in a cell viability assay.

CAL-12T = assay: cells; format: functional, cell-based, Homo sapiens; settings: Homo sapiens, CAL-12T;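 also: growth inhibition of human CAL-12T cells, read out with a cell viability assay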
Description: SANGER: Inhibition of human CAL-12T cell growth in a cell viability assay.

CaR-1 = assay: cells; format: functional, cell-based; settings: Homo sapiens;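 also: growth inhibition of human CaR-1 cancer cells, read out with a cell viability assay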
Description: SANGER: Inhibition of human CaR-1 cell growth in a cell viability assay.

SW-620 = assay: cells; format: functional, cell-based; settings: Homo sapiens;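 also: growth inhibition of human SW-620 cells, measured by a cell viability assay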
Description: SANGER: Inhibition of human SW620 cell growth in a cell viability assay.

MDA-MB-157 = assay: cells; format: functional, cell-based; settings: Homo sapiens
Description: SANGER: Inhibition of human MDA-MB-157 cell growth in a cell viability assay.

Ca-Ski = assay: cells; format: functional, cell-based; settings: Homo sapiens;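 also: cell viability assay measuring inhibition of Ca-Ski cell growth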
Description: SANGER: Inhibition of human Ca-Ski cell growth in a cell viability assay.

THP-1 = assay: cells; format: functional, cell-based; settings: Homo sapiens;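 also: growth inhibition of THP-1 cells, read out via a cell viability assay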
Description: SANGER: Inhibition of human THP-1 cell growth in a cell viability assay.

ST486 = assay: SANGER: Inhibition of human ST486 cell growth in a cell viability assay.; format: functional, cell-based
IST-SL2 = assay: cells; format: functional, cell-based; settings: Homo sapiens;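 also: growth inhibition of human IST-SL2 cells, read out by a cell viability assay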
Description: SANGER: Inhibition of human IST-SL2 cell growth in a cell viability assay.

CMK = assay: cells; format: functional, cell-based; settings: Homo sapiens;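 also: growth inhibition of CMK cells, read out as cell viability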
Description: SANGER: Inhibition of human CMK cell growth in a cell viability assay.

KYSE-520 cell line = assay: cells; format: functional, cell-based; settings: Homo sapiens;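 also: growth inhibition of human KYSE-520 cells, read out with a viability assay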
Description: SANGER: Inhibition of human KYSE-520 cell growth in a cell viability assay.

C32 = assay: cells; format: functional, cell-based; settings: Homo sapiens;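 also: cell viability assay, with IC50 reflecting inhibition of C32 cell growth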
Description: SANGER: Inhibition of human C32 cell growth in a cell viability assay.

NCI-H2122 = assay: cells; format: functional, cell-based; settings: Homo sapiens;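 also: growth inhibition of the cells, read out with a cell viability assay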
Description: SANGER: Inhibition of human NCI-H2122 cell growth in a cell viability assay.

COR-L23 = assay: cells; format: functional, cell-based; settings: Homo sapiens;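 also: cell viability assay measuring how strongly compounds suppress growth of COR-L23 cells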
Description: SANGER: Inhibition of human COR-L23 cell growth in a cell viability assay.

NCI-H1793 = assay: cells; format: functional, cell-based; settings: Homo sapiens;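 also: cell growth inhibition, read out by a cell viability assay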
Description: SANGER: Inhibition of human NCI-H1793 cell growth in a cell viability assay.

SF-295 = assay: cells; format: functional, cell-based; settings: Homo sapiens;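 also: growth inhibition of SF-295 cells, read out with a cell viability assay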
Description: SANGER: Inhibition of human SF295 cell growth in a cell viability assay.

SK-MEL-24 = assay: cells; format: functional, cell-based; settings: Homo sapiens;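 also: growth inhibition read out by a cell viability assay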
Description: SANGER: Inhibition of human SK-MEL-24 cell growth in a cell viability assay.

CP50-MEL-B = assay: cells; format: functional, cell-based; settings: Homo sapiens;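 also: growth inhibition of the human cell line, measured with a cell viability read-out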
Description: SANGER: Inhibition of human CP50-MEL-B cell growth in a cell viability assay.

NUGC-3 = assay: cells; format: functional, cell-based; settings: Homo sapiens;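 also: growth inhibition of human NUGC-3 cells, read out with a cell viability assay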
Description: SANGER: Inhibition of human NUGC-3 cell growth in a cell viability assay.

TGW = assay: cells; format: functional, cell-based; settings: Homo sapiens;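 also: growth inhibition of human TGW cells, read out with a cell viability assay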
Description: SANGER: Inhibition of human TGW cell growth in a cell viability assay.

BPH-1 = assay: cells; format: functional, cell-based; settings: Homo sapiens;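 also: cell viability assay measuring growth inhibition of human BPH-1 cells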
Description: SANGER: Inhibition of human BPH-1 cell growth in a cell viability assay.

SK-MEL-28 = assay: cells; format: functional, cell-based; settings: Homo sapiens;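 also: growth inhibition of human SK-MEL-28 cells, read out with a cell viability assay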
Description: SANGER: Inhibition of human SK-MEL-28 cell growth in a cell viability assay.

DOK = assay: cells; format: functional, cell-based; settings: Homo sapiens;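 also: cell viability assay read-out, values reflect inhibition of cell growth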
Description: SANGER: Inhibition of human DOK cell growth in a cell viability assay.

PA-1 = assay: cells; format: functional, cell-based; settings: Homo sapiens;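 also: IC50 for suppression of PA-1 cell proliferation, determined with a cell viability read-out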
Description: SANGER: Inhibition of human PA-1 cell growth in a cell viability assay.

OVCAR-5 = assay: cells; format: functional, cell-based; settings: Homo sapiens
Description: SANGER: Inhibition of human OVCAR-5 cell growth in a cell viability assay.

`CO[C@@]12[C@H](COC(N)=O)C3=C(C(=O)C(C)=C(N)C3=O)N1C[C@@H]1N[C@@H]12` [MITOMYCIN] showed an IC50 (LC4-1) of 1240 nM, an IC50 (NCI-H2030) of 211 nM and an IC50 (MEL-JUSO) of 51.3 nM. The IC50 (SW1710) was 72.6 nM, the IC50 (SKG-IIIa) was 377 nM and the IC50 (NCI-H748) was 59.5 nM. For the same compound, the IC50 (RD) was 1900 nM, the IC50 (CWR22R) was 144 nM and the IC50 (MIA PaCa-2) was 275 nM. It also gave an IC50 (RPMI-2650) of 196 nM, an IC50 (EB2) of 65.4 nM and an IC50 (CAKI-1) of 23.3 nM. The IC50 (EB-3) was 3200 nM, the IC50 (NCI-H2052) was 1990 nM and the IC50 (769-P) was under 62.5 nM. The IC50 (SW626) was 286 nM, the IC50 (8505C) was 430 nM and the IC50 (MDA-MB-361) was 809 nM. The IC50 (NCI-N87) was 438 nM, the IC50 (GCT) was 4600 nM and the IC50 (T84) was 173 nM. The IC50 (TALL-1) was 2400 nM, the IC50 (UMC-11) was 567 nM and the IC50 (LK-2) was 358 nM. The IC50 (RPMI-6666) was 220 nM, the IC50 (RERF-LC-MS) was 1030 nM and the IC50 (FaDu) was 128 nM. For the same compound, the IC50 (A-375) was 139 nM, the IC50 (MDA-MB-175-VII) was 3160 nM and the IC50 (KYSE-70 cell line) was 224 nM. The IC50 (K052) was 149 nM, the IC50 (8305C) was 156 nM and the IC50 (BC-3) was 212 nM. The IC50 (MCF7) was under 62.5 nM, the IC50 (BXPC-3) was 775 nM and the IC50 (PANC-03-27) was 167 nM. For the same compound, the IC50 (OAW-42) was 89.4 nM, the IC50 (NCI-H1882) was 257 nM and the IC50 5637 was 31.9 nM. The IC50 (CAL-12T) was 491 nM, the IC50 (CaR-1) was 469 nM and the IC50 (SW-620) was 39.8 nM. The IC50 (MDA-MB-157) was 2190 nM, the IC50 (Ca-Ski) was 53.8 nM and the IC50 (THP-1) was 596 nM. The IC50 (ST486) was 494 nM, the IC50 (IST-SL2) was 388 nM and the IC50 (CMK) was under 62.5 nM. For the same compound, the IC50 (KYSE-520 cell line) was 772 nM, the IC50 (C32) was 1530 nM and the IC50 (NCI-H2122) was under 62.5 nM. It also gave an IC50 (COR-L23) of 241 nM, an IC50 (NCI-H1793) of 1810 nM and an IC50 (SF-295) of under 62.5 nM. The IC50 (SK-MEL-24) was 1370 nM, the IC50 (CP50-MEL-B) was 780 nM and the IC50 (NUGC-3) was 16.9 nM. For the same compound, the IC50 (TGW) was 2760 nM, the IC50 (BPH-1) was 29.9 nM and the IC50 (SK-MEL-28) was over 16000 nM. The IC50 (DOK) was 5160 nM, the IC50 (PA-1) was 23.5 nM and the IC50 (OVCAR-5) was 487 nM.

`C/C=C(/C)C(=O)O[C@H]1C(C)=C2[C@H]([C@@H]1OC(=O)CCCCCCC)[C@@](C)(OC(C)=O)C[C@H](OC(=O)CCC)[C@@]1(O)[C@H]2OC(=O)[C@@]1(C)O` [THAPSIGARGIN] gave an IC50 (LC4-1) of 42.3 nM, an IC50 (NCI-H2030) of 4.05 nM and an IC50 (MEL-JUSO) of under 2 nM. The IC50 (SW1710) was under 2 nM, the IC50 (SKG-IIIa) was over 512 nM and the IC50 (NCI-H748) was 31.3 nM. The IC50 (RD) was 7.35 nM, the IC50 (CWR22R) was 1.17 nM and the IC50 (MIA PaCa-2) was 3.3 nM. It also gave an IC50 (RPMI-2650) of 2.74 nM, an IC50 (EB2) of 10.4 nM and an IC50 (CAKI-1) of 83.4 nM. It also gave an IC50 (EB-3) of 19 nM, an IC50 (NCI-H2052) of 6.4 nM and an IC50 (769-P) of 32.3 nM. For the same compound, the IC50 (SW626) was 17.7 nM, the IC50 (8505C) was under 2 nM and the IC50 (MDA-MB-361) was 4.73 nM. For the same compound, the IC50 (NCI-N87) was over 512 nM, the IC50 (GCT) was 5.3 nM and the IC50 (T84) was 13.4 nM. The IC50 (TALL-1) was 21.7 nM, the IC50 (UMC-11) was 9.15 nM and the IC50 (LK-2) was 1.46 nM. For the same compound, the IC50 (RPMI-6666) was 42.6 nM, the IC50 (RERF-LC-MS) was 1.37 nM and the IC50 (FaDu) was 169 nM. For the same compound, the IC50 (A-375) was under 2 nM, the IC50 (MDA-MB-175-VII) was 330 nM and the IC50 (KYSE-70 cell line) was under 2 nM. The IC50 (K052) was 495 nM, the IC50 (8305C) was 2.7 nM and the IC50 (BC-3) was 4.51 nM. The IC50 (MCF7) was under 2 nM, the IC50 (BXPC-3) was 6.53 nM and the IC50 (PANC-03-27) was under 2 nM. The IC50 (OAW-42) was 27 nM, the IC50 (NCI-H1882) was over 512 nM and the IC50 5637 was 11.4 nM. It also gave an IC50 (CAL-12T) of under 2 nM, an IC50 (CaR-1) of 8.62 nM and an IC50 (SW-620) of 3.02 nM. It also gave an IC50 (MDA-MB-157) of over 512 nM, an IC50 (Ca-Ski) of 32.2 nM and an IC50 (THP-1) of 11.4 nM. For the same compound, the IC50 (ST486) was 1.77 nM, the IC50 (IST-SL2) was 6.76 nM and the IC50 (CMK) was 33.3 nM. It also gave an IC50 (KYSE-520 cell line) of 20.7 nM, an IC50 (C32) of 309 nM and an IC50 (NCI-H2122) of 4.49 nM. For the same compound, the IC50 (COR-L23) was 0.749 nM, the IC50 (NCI-H1793) was over 512 nM and the IC50 (SF-295) was under 2 nM. For the same compound, the IC50 (SK-MEL-24) was over 512 nM, the IC50 (CP50-MEL-B) was 11.1 nM and the IC50 (NUGC-3) was under 2 nM. For the same compound, the IC50 (TGW) was 4.73 nM, the IC50 (BPH-1) was 0.6 nM and the IC50 (SK-MEL-28) was over 512 nM. For the same compound, the IC50 (DOK) was over 512 nM, the IC50 (PA-1) was 0.698 nM and the IC50 (OVCAR-5) was under 2 nM.
